Assay results as given in patent US12370192B2, “Azole-fused pyridazin-3(2H)-one derivatives” (TAKEDA PHARMACEUTICAL COMPANY LIMITED, priority 2019, dated 2025).

How the values were obtained:
[1] = molecular target: T1, human GPR139 receptor (Homo sapiens, UniProt Q6DWJ6); assay: Measurement of GPR139 Activation Via Calcium Signaling (FLIPR, T-REx-CHO cells); format: cell-based; conditions: T-REx-CHO cells stably expressing human GPR139, 11-point dose response, 10 μM maximum concentration, read-out: GPR139 Potency (pEC50) (converted)
T1 construct: expressed in transfected cells; host or cells: T-REx-CHO (Thermo Fisher Scientific), doxycycline-induced
T1 sequence (Q6DWJ6 1-353): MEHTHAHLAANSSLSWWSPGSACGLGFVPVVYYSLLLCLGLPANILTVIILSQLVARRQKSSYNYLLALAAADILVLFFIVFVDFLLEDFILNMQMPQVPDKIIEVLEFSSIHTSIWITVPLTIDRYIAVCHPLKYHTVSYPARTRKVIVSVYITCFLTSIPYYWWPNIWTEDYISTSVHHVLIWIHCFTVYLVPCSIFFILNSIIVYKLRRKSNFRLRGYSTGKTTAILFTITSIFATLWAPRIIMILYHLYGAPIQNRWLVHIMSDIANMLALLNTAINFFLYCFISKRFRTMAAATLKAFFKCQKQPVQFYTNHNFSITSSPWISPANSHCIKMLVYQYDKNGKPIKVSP
Protocol: Measurement of GPR139 Activation Via Calcium Signaling
This cell-based assay measures the ability of compounds to activate GPR139 in stably transfected T-REx™-CHO cells. T-REx™-CHO cells (Thermo Fisher Scientific®) are stably expressed with human GPR139 receptor, whose expression is controlled by a tetracycline-inducible element. The cells are cultured in medium containing F-12K nutrient mixture-Kaighn's modification, TripleLE™ Express (1×)-phenol red, Dulbecco's phosphate-buffered saline (1×), 10% tetracycline-free FBS, Blasticidin S HCl (10 μg/mL) and Hygromycin B (200 μg/mL). The cells are introduced into the wells of a 384-well black clear bottom plate (Costar®) at 10,000 cells/well. GPR139 receptor expression is induced with 2 μg/mL doxycycline (Sigma D9891). The plate is allowed to stand at room temperature for 10-30 minutes and then incubated at 37° C. and 5% CO2 for 17 hours prior to assay.
Culture media is removed from cells and 45 μL of 1× calcium dye (2.5 mM) is added to each well and incubated at 37° C. and 5% CO2 for 40 minutes. The plate is removed from the incubator and allowed to stand at RT for 20 minutes without a plate cover prior to measurement of calcium signaling. The calcium dye is prepared by adding 10 mL of assay buffer (Hank's Balanced Salt Solution (1×), 1 mM HEPES at pH 7.4) to one vial of calcium dye (FLIPR® Calcium 5 Assay Kit; Molecular Devices) at room temperature, vortexing the mixture until homogenous, and transferring the dye to a 250 mL flask using 10 mL of assay, buffer to rinse the vial. The dye is subsequently transferred to a conical flask, which is filled to the 200 mL mark with assay buffer, and 1 mL of […] probenecid solution (142.68 mg/mL in 1M NaOH aq) is added.
Example compounds suspended in DMSO are received from compound management in microtiter plates (0.25 μL/well) and are diluted in assay buffer (25 μL). Following incubation of the cell plate, the Example compounds are added to the cells (11-point dose response, 10 μM maximum concentration) using a FLIPR® Tetra system (Molecular Devices) and fluorescence is measured continuously for 1 minute. EC50 curves are generated with a four-parameter logistic equation using GraphPad Prism® 6, and activation of GPR139 for each example compound is reported as pEC50.

[2] = molecular target: T1, human GPR139 receptor; assay: GPR139 Competition Binding (membrane-based, tritium-labeled ligand); conditions: T-REx-CHO membranes with human GPR139; 6.5 nM tritium-labeled ligand; 11-point curve, 30 μM maximum concentration; read-out: GPR139 Binding Affinity (pKi) (converted)
Protocol: OPR139 Competition Binding
This membrane-based assay measures the ability of compounds to competitively bind GPR139 in stably transfected TREx™-CHO membranes. To prepare the membranes, T-REx™-CHO (Thermo Fisher Scientific®) cells are stably expressed with human GPR139 receptor, whose expression is controlled by a tetracycline-inducible element. The cells are cultured in medium containing F-12K nutrient mixture-Kaighn's modification, 10% tetracycline-free FBS, Blasticidin S HCl (10 μg/mL) and Hygromycin B (200 μg/mL). GPR139 receptor expression is induced for 18 hours with 2 μg/mL doxycycline (Sigma D9891) in growth media. After addition of doxycycline, cells are harvested in PBS and pelleted by centrifugation for 5 minutes at 200×G. Liquid is aspirated off and cells are resuspended in ice cold lysis buffer (20 mM HEPES/5 mM EDTA pH 7.4/1× Roche® protease inhibitor). Samples are vortexed until homogenous and then placed on ice and homogenized using a Dounce homogenizer at 50% power (3 cycles, 10 strokes per cycle). Lysate is centrifuged at 4° C. for 10 minutes in a tabletop Sorvall® centrifuge at 2000×G. The supernatant is recovered and centrifuged in a Sorvall® ultracentrifuge at 35,000 rpm for 30 minutes at 4° C. The supernatant is discarded, and the remaining pellet resuspended in lysis buffer (20 mM HEPES/0.1 mM EGTA/Roche® protease inhibitor). Membrane protein concentration is determined using Thermo Fisher® BCA quantification kit and is aliquoted into microtubes. Tubes are snap frozen in liquid nitrogen and stored at −80° C. Prior to use, the membranes are removed from cold storage, thawed to room temperature, vortexed until homogenous and diluted in assay buffer (20 mM HEPES pH 7.3, 5 mM MgCl2, 1 mM CaCl2), 1× Thermo Scientific® Halt™ protease inhibitor (78429)).
The assay is run in 96-well, polypropylene, v-bottom plates (Greiner Bio-One® 651201). Test compound in DMSO is added to the wells of each plate (11-point dose response curve, 30 μM maximum concentration, 3-fold serial dilution). A fixed amount of tritium-labeled ligand, (S)-2-(2,3-dimethyl-7-oxothieno[2,3-d]pyridazin-6(7H)-yl)-N-(1-(4-methoxyphenyl-2-t)propan-2-yl)acetamide (Quotient Bioresearch) in assay buffer (6.5 nM assay concentration) is added to each well of the assay plate, which is then agitated on a plate shaker for 30 seconds. Next, a fixed amount of membranes in assay buffer (2 μg membranes) is added to each well of the assay plate, which is then spun for 30 seconds at 300 rpm in a tabletop Eppendorf centrifuge, and then incubated at room temperature for 20 minutes. Using a Tomtec harvester, the contents of the assay plate are transferred to Filtermat A (PerkinElmer® No. 1450-421) which prior to use is pre-soaked in 0.5% PEI (Sigma P3143) for 3 hours and dried at room temperature overnight. Following transfer, the Filtermat is washed 5 times with cold wash buffer (20 mM HEPES pH 7.3, 100 mM NaCl). The Filtermat is dried using a microwave oven and placed in a sample bag (PerkinElmer® No. 1450-432) with a scintillator sheet (PerkinElmer® No. 1450-411). The scintillator sheet is melted to the Filtermat using a heat block set to 65° C., placed in a MicroBeta® cartridge and read using a MicroBeta® scintillation counter. Binding curves are generated with a four-parameter logistic equation using GraphPad Prism® 6 and the inhibition constant Ki is reported as pKi.

EC50 [1] [nM] | Ki [2] [nM] | SMILES
132 | 204 | Cc1nn(C)c2c(C)nn(CC(=O)N[C@@H](C)c3ccc(C(F)(F)F)cc3)c(=O)c12 [Example 114, (S)—N-(1-(4-(trifluoromethyl)phenyl)ethyl)-2-(1,3,7-trimethyl-4-oxo-1,4-dihydro-5H-pyrazolo[3,4-d]pyridazin-5-yl)acetamide]
55 | 1910 | Cc1nn(CC(=O)N[C@@H](C)c2ccc(C(F)(F)F)cc2)c(=O)c2cnn(C)c12 [Example 72, (S)-2-(1,7-dimethyl-4-oxo-1,4-dihydro-5H-pyrazolo[3,4-d]pyridazin-5-yl)-N-(1-(4-(trifluoromethyl)phenyl)ethyl)acetamide]
70.8 | 6030 | C[C@H](NC(=O)Cn1ncc2c(cnn2C)c1=O)c1ccc(C(F)(F)F)cc1 [Example 34, (S)-2-(1-methyl-4-oxo-1,4-dihydro-5H-pyrazolo[3,4-d]pyridazin-5-yl)-N-(1-(4-(trifluoromethyl)phenyl)ethyl)acetamide]
57.5 | 2000 | Cc1nn(C2CC2)c2cnn(CC(=O)NC(C)c3ccc4c(c3)OCCO4)c(=O)c12 (centres unmarked) [Example 106, 2-(1-cyclopropyl-3-methyl-4-oxo-1,4-dihydro-5H-pyrazolo[3,4-d]pyridazin-5-yl)-N-(1-(2,3-dihydrobenzo[b][1,4]dioxin-6-yl)ethyl)acetamide]
24 | 589 | Cc1cc([C@H](C)NC(=O)Cn2ncc3c(c(C)nn3C3CC3)c2=O)ccc1F [Example 134, (S)-2-(1-cyclopropyl-3-methyl-4-oxo-1,4-dihydro-5H-pyrazolo[3,4-d]pyridazin-5-yl)-N-(1-(4-fluoro-3-methylphenyl)ethyl)acetamide]
132 | 3090 | COc1ccc([C@H](C)NC(=O)Cn2nc(C)c3c(c(C)nn3C(C)C)c2=O)cc1 [Example 57, (S)-2-(1-isopropyl-3,7-dimethyl-4-oxo-1,4-dihydro-5H-pyrazolo[3,4-d]pyridazin-5-yl)-N-(1-(4-methoxyphenyl)ethyl)acetamide]
457 | 5890 | C[C@H](NC(=O)Cn1ncc2c(ncn2C)c1=O)c1ccc(C(F)(F)F)cc1 [Example 141, (S)-2-(1-methyl-4-oxo-1,4-dihydro-5H-imidazo[4,5-d]pyridazin-5-yl)-N-(1-(4-(trifluoromethyl)phenyl)ethyl)acetamide]
≥ 10000 | 91.2 | CC(C)c1nn(CC(=O)N[C@@H](C)c2ccc(C(F)(F)F)cc2)c(=O)c2c1cnn2-c1ccccc1 [Example 4, (S)-2-(4-isopropyl-7-oxo-1-phenyl-1,7-dihydro-6H-pyrazolo[3,4-d]pyridazin-6-yl)-N-(1-(4-(trifluoromethyl)phenyl)ethyl)acetamide]
741 | 55 | Cc1nn(C2CC2)c2c(=O)n(CC(=O)N3CCCC3c3ccc(Cl)cc3)ncc12 (centres unmarked) [Example 85, 6-(2-(2-(4-chlorophenyl)pyrrolidin-1-yl)-2-oxoethyl)-1-cyclopropyl-3-methyl-1,6-dihydro-7H-pyrazolo[3,4-d]pyridazin-7-one]
148 | 42.7 | Cc1ccc([C@H](C)NC(=O)Cn2nc(C)c3c(c(C)nn3C)c2=O)c(F)c1 [Example 111, (S)—N-(1-(2-fluoro-4-methylphenyl)ethyl)-2-(1,3,7-trimethyl-4-oxo-1,4-dihydro-5H-pyrazolo[3,4-d]pyridazin-5-yl)acetamide]
52.5 | 32.4 | Cc1ccc([C@H](C)NC(=O)Cn2ncc3c(C)nn(C4CC4)c3c2=O)cc1 [Example 28, (S)-2-(1-cyclopropyl-3-methyl-7-oxo-1,7-dihydro-6H-pyrazolo[3,4-d]pyridazin-6-yl)-N-(1-(p-tolyl)ethyl)acetamide]
347 | 741 | Cc1nn(CC(=O)N[C@@H](C)c2ccc(C(F)(F)F)cn2)c(=O)c2c1c(C)nn2C(C)C [Example 59, (S)-2-(1-isopropyl-3,4-dimethyl-7-oxo-1,7-dihydro-6H-pyrazolo[3,4-d]pyridazin-6-yl)-N-(1-(5-(trifluoromethyl)pyridin-2-yl)ethyl)acetamide]
34.7 | 74.1 | Cc1ccc([C@H](C)NC(=O)Cn2nc(C)c3cnn(C)c3c2=O)c(F)c1 [Example 41, (S)-2-(1,4-dimethyl-7-oxo-1,7-dihydro-6H-pyrazolo[3,4-d]pyridazin-6-yl)-N-(1-(2-fluoro-4-methylphenyl)ethyl)acetamide]
117 | 178 | C[C@H](NC(=O)Cn1ncc2c(C3CC3)nn(C)c2c1=O)c1ccc(OC(F)(F)F)cc1 [Example 143, (S)-2-(3-cyclopropyl-1-methyl-7-oxo-1,7-dihydro-6H-pyrazolo[3,4-d]pyridazin-6-yl)-N-(1-(4-(trifluoromethoxy)phenyl)ethyl)acetamide]
57.5 | 2950 | COc1ccc([C@H](C)NC(=O)Cn2ncc3c(c(C)nn3C(C)C)c2=O)cc1 [Example 17, (S)-2-(1-isopropyl-3-methyl-4-oxo-1,4-dihydro-5H-pyrazolo[3,4-d]pyridazin-5-yl)-N-(1-(4-methoxyphenyl)ethyl)acetamide]
166 | 102 | Cc1ccc([C@H](C)NC(=O)Cn2ncc3c(C)nn(C(C)C)c3c2=O)cc1 [Example 23]
